According to the supplement of paper PMC13380429:

What was measured:
Conditions in all cases: 72 h
[1] = system: Caco-2; assay: cell viability relative to DMSO; higher = less toxic
[2] = system: Calu-3; assay: as above
[3] = system: HepG2; assay: as above
[4] = system: U2OS; assay: as above
[5] = system: Vero E6; assay: as above
[6] = system: Caco-2; assay: relative viability EC50 (midpoint between 100% and the lowest measured viability); higher = less toxic
[7] = system: Calu-3; assay: as above
[8] = system: HepG2; assay: as above
[9] = system: U2OS; assay: as above
[10] = system: Vero E6; assay: as above
[11] = system: Caco-2; assay: drug sensitivity score (DSS) for viability; higher = more toxic; extreme values may be limits of the assay
[12] = system: Calu-3; assay: as above
[13] = system: HepG2; assay: as above
[14] = system: U2OS; assay: as above
[15] = system: Vero E6; assay: as above

| SMILES | cell viability ([1]; 1 nM) [%] | cell viability ([1]; 10 nM) [%] | cell viability ([1]; 100 nM) [%] | cell viability ([1]; 1000 nM) [%] | cell viability ([1]; 10000 nM) [%] | cell viability ([2]; 1 nM) [%] | cell viability ([2]; 10 nM) [%] | cell viability ([2]; 100 nM) [%] | cell viability ([2]; 1000 nM) [%] | cell viability ([2]; 10000 nM) [%] | cell viability ([3]; 1 nM) [%] | cell viability ([3]; 10 nM) [%] | cell viability ([3]; 100 nM) [%] | cell viability ([3]; 1000 nM) [%] | cell viability ([3]; 10000 nM) [%] | cell viability ([4]; 1 nM) [%] | cell viability ([4]; 10 nM) [%] | cell viability ([4]; 100 nM) [%] | cell viability ([4]; 1000 nM) [%] | cell viability ([4]; 10000 nM) [%] | cell viability ([5]; 1 nM) [%] | cell viability ([5]; 10 nM) [%] | cell viability ([5]; 100 nM) [%] | cell viability ([5]; 1000 nM) [%] | cell viability ([5]; 10000 nM) [%] | relative viability EC50 [6] [µM] | relative viability EC50 [7] [µM] | relative viability EC50 [8] [µM] | relative viability EC50 [9] [µM] | relative viability EC50 [10] [µM] | drug sensitivity score [11] | drug sensitivity score [12] | drug sensitivity score [13] | drug sensitivity score [14] | drug sensitivity score [15] |
| --- | --- | --- | --- | --- | --- | --- | --- | --- | --- | --- | --- | --- | --- | --- | --- | --- | --- | --- | --- | --- | --- | --- | --- | --- | --- | --- | --- | --- | --- | --- | --- | --- | --- | --- | --- |
| Cc1cccc(-c2nn3c(c2-c2ccnc4ccc(C(N)=O)cc24)CCC3)n1 | 96.9 | 87.8 | 93.1 | 100 | 109 | 95.4 | 108 | 91.4 | 105 | 113 | 103 | 96.5 | 106 | 99.4 | 106 | 98.3 | 99.5 | 95.8 | 96 | 92.6 | 98.9 | 99 | 101 | 99.9 | 113 | > 10 | > 10 | > 10 | > 10 | > 10 | 0 | 0 | 0 | 0 | 0 |
| N=C(N)NCCC[C@H](NC(=O)c1sccc1NS(=O)(=O)c1cccc2nsnc12)C(=O)O | 96.9 | 104 | 98.5 | 101 | 105 | 92.7 | 110 | 106 | 117 | 110 | 105 | 101 | 95.8 | 105 | 103 | 98.3 | 102 | 96.3 | 105 | 98.4 | 105 | 103 | 101 | 98.4 | 97.1 | > 10 | > 10 | > 10 | > 10 | > 10 | 0 | 0 | 0 | 0 | 0 |
| Nc1ncnc2c1C(=O)N(c1ccc([C@H]3CC[C@H](CC(=O)O)CC3)cc1)CCO2 | 100 | 90.6 | 95.3 | 98.1 | 104 | 107 | 99.7 | 109 | 105 | 110 | 91.2 | 101 | 95.3 | 117 | 92.3 | 104 | 99.6 | 109 | 102 | 97.5 | 98 | 103 | 93.7 | 107 | 107 | > 10 | > 10 | > 10 | > 10 | > 10 | 0 | 0 | 0 | 0 | 0 |
| Nc1ncnc2c1ncn2C1CCCO1 (stereo not drawn) | 104 | 107 | 99.7 | 90.2 | 91.7 | 106 | 102 | 94.1 | 102 | 102 | 98.7 | 94.8 | 103 | 93.9 | 103 | 97.4 | 98.9 | 94.8 | 99.4 | 98.9 | 95.6 | 102 | 101 | 98.8 | 100 | > 10 | > 10 | > 10 | > 10 | > 10 | 0 | 0 | 0 | 0 | 0 |
| CC=CC1=C(C(=O)O)N2C(=O)[C@@H](NC(=O)[C@H](N)c3ccc(O)cc3)[C@H]2SC1 (mixture of isomers) [cefprozil] | 101 | 94.3 | 82.7 | 120 | 125 | 86.7 | 94.2 | 81 | 97.8 | 95.5 | 112 | 104 | 100 | 97.2 | 106 | 95.8 | 101 | 96.8 | 99.8 | 98.7 | 110 | 90.7 | 99.9 | 103 | 112 | > 10 | > 10 | > 10 | > 10 | > 10 | 0 | 0 | 0 | 0 | 0 |
| CN(C)CC[C@H](CSc1ccccc1)Nc1ccc(S(=O)(=O)NC(=O)c2ccc(N3CCN(Cc4ccccc4-c4ccc(Cl)cc4)CC3)cc2)cc1[N+](=O)[O-] [ABT-737] | 104 | 92.4 | 105 | 101 | 83.8 | 115 | 99.1 | 114 | 95.2 | 39.3 | 109 | 111 | 104 | 95.8 | 93 |  |  |  |  |  | 97.2 | 98.6 | 95.3 | 96 | 95.1 | > 10 | 2.52 | > 10 |  | > 10 | 0.3 | 4 | 0 |  | 0 |
